Structures are written as SMILES. pEC50: −log10 of the molar value. Structures can show the parent of a compound that is named as a salt.

For one test, the target named is T1, human hNET (Homo sapiens, UniProt P23975).
T1 construct: expressed in transfected cells; host or cells: MDCK-Net6 (MDCK cells, stably transfected)
T1 sequence (P23975 whole entry): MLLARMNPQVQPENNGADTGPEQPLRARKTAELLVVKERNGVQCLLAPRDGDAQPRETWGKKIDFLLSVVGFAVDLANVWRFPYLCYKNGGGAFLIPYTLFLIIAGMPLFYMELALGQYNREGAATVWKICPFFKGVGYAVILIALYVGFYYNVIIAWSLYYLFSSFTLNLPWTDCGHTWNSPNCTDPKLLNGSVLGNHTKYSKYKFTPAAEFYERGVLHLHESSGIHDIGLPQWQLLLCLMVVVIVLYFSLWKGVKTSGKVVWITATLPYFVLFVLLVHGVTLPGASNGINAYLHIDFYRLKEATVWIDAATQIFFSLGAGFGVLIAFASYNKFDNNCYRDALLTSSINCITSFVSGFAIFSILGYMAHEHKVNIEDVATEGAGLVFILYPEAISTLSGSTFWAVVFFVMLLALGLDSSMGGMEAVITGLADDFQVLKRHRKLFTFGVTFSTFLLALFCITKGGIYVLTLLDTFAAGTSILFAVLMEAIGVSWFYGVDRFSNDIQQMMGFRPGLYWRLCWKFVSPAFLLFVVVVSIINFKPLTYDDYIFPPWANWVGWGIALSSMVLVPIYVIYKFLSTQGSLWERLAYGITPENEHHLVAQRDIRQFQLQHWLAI
As to the kind of experiment: Norepinephrine (NE) uptake assay in MDCK-Net6 cells. The format is cell-based. The settings on record: 1 μM test compound, [3H]NE uptake, read-out: % Inhibition @ 1 μM (hNET). As to the method: Cells were plated at 300,000/T75 flask and cells were split twice weekly. […] Cells were plated at 250,000 cells/T75 flask and split twice weekly.
Norepinephrine (NE) Uptake Assay
On day 1, cells were plated at 3,000 cells/well in growth medium and maintained in a cell incubator (37° C., 5% CO2). On day 2, growth medium was replaced with 200 μl of assay buffer (25 mM HEPES; 120 mM NaCl; 5 mM KCl; 2.5 mM CaCl2; 1.2 mM MgSO4; 2 mg/ml glucose (pH 7.4, 37° C.)) containing 0.2 mg/ml ascorbic acid and 10 μM pargyline. Plates containing cells with 200 μl of assay buffer were equilibrated for 10 minutes at 37° C. prior to addition of compounds. A stock solution of desipramine was prepared in DMSO (10 mM) and delivered to triplicate wells containing cells for a final test concentration of 1 μM. Data from these wells were used to define non-specific NE uptake (minimum NE uptake). Test compounds were prepared in DMSO (10 mM) and diluted in assay buffer according to test range (1 to 10,000 nM). Twenty-five microliters of assay buffer (maximum NE uptake) or test compound were added directly to triplicate wells containing cells in 200 μl of assay buffer. The cells in assay buffer with test compounds were incubated for 20 minutes at 37° C. […] The reaction was terminated by decanting the supernatant from the plate. The plates containing cells were washed twice with 200 μl assay buffer (37° C.) to remove free radioligand. The plates were then inverted, left to dry for 2 minutes, then reinverted and air-dried for an additional 10 minutes. The cells were lysed in 25 μl of 0.25 N NaOH solution (4° C.), placed on a shake table and vigorously shaken for 5 minutes. After cell lysis, 75 μl of scintillation cocktail was added to each well and the plates were sealed with film tape. The plates were returned to the shake table and vigorously shaken for a minimum of 10 minutes to ensure adequate partitioning of organic and aqueous solutions. The plates were counted in a Wallac Microbeta counter (PerkinElmer) to collect the raw cpm data.
For each experiment, a data stream of cpm values collected from the Wallac Microbeta counter was downloaded to a Microsoft Excel statistical application program. Calculations of EC50 values were made using the transformed-both-sides logistic dose response program written by Wyeth Biometrics Department.
In general, inhibition refers to the relative decrease from the control value, in per cent. In the case of `COc1cccc(-c2ccc(C(CN3CCNCC3)C3(O)CCCCC3)cc2)c1` (stereo not drawn) [Example 170, 1-[1-(3′-methoxy-1,1′-biphenyl-4-yl)-2-piperazin-1-ylethyl]cyclohexanol dihydrochloride], the inhibition at 1 µM turned out to be 19%.
Same read-out and setting: as for `CN1CCN(CC(c2ccc(OCc3ccccc3)cc2)C2(O)CCC2)CC1` (stereo not drawn) [Example 71, 1-[1-[4-(benzyloxy)phenyl]-2-(4-methylpiperazin-1-yl)ethyl]cyclobutanol dihydrochloride], the figure is 25%; as for `OC1(C(CN2CCNCC2)c2ccc(-c3cccc(Cl)c3)cc2)CCCCC1` (stereo not drawn) [Example 167, 1-[1-(3′-chloro-1,1′-biphenyl-4-yl)-2-piperazin-1-ylethyl]cyclohexanol dihydrochloride], 25%; as for `CN1CCN(CC(c2ccc(OCc3ccccc3)c(C#N)c2)C2(O)CCCCC2)CC1` (stereo not drawn) [Example 267, 2-(benzyloxy)-5-[1-(1-hydroxycyclohexyl)-2-(4-methylpiperazin-1-yl)ethyl]benzonitrile dihydrochloride], 89%.
Same read-out and setting: with `CN1CCN(CC(c2ccc(OCc3ccc(Br)cc3F)c(Cl)c2)C2(O)CCCCC2)CC1` (stereo not drawn) [Example 426, 1-[1-{4-[(4-bromo-2-fluorobenzyl)oxy]-3-chlorophenyl}-2-(4-methylpiperazin-1-yl)ethyl]cyclohexanol dihydrochloride] the figure was 84%; with `Cc1ccc(-c2ccc(C(CN3CCN(C)CC3)C3(O)CCCCC3)cc2)cc1` (stereo not drawn) [Example 181, 1-[1-(4′-methyl-1,1′-biphenyl-4-yl)-2-(4-methylpiperazin-1-yl)ethyl]cyclohexanol dihydrochloride], 31%; with `COc1cccc(-c2ccc(C(CN3CCN(C)CC3)C3(O)CCCCC3)cc2)c1` (stereo not drawn) [Example 179, 1-[1-(3′-methoxy-1,1′-biphenyl-4-yl)-2-(4-methylpiperazin-1-yl)ethyl]cyclohexanol dihydrochloride], 27%.
For the compound `Cc1ccc(COc2ccc(C(CN3CCN(C)CC3)C3(O)CCCCC3)cc2F)cc1` (stereo not drawn) [Example 418, 1-[1-(3-fluoro-4-{[4-(methyl)benzyl]oxy}phenyl)-2-(4-methylpiperazin-1-yl)ethyl]cyclohexanol dihydrochloride], the inhibition at 1 µM was determined as 71%.
`COc1cc(C(CN2CCNCC2)C2(O)CCCCC2)ccc1OCc1ccc2ccccc2c1` (stereo not drawn) [Example 444, 1-{1-[3-methoxy-4-(2-naphthylmethoxy)phenyl]-2-piperazin-1-ylethyl}cyclohexanol dihydrochloride]: the inhibition at 1 µM was found to be 98%.
On the same count and under the same terms, with `CN1CCN(CC(c2ccc(OCc3ccccc3C(F)(F)F)c(Cl)c2)C2(O)CCCCC2)CC1` (stereo not drawn) [Example 422, 1-[1-(3-chloro-4-{[2-(trifluoromethyl)benzyl]oxy}phenyl)-2-(4-methylpiperazin-1-yl)ethyl]cyclohexanol dihydrochloride] the figure was 20%; with `CN1CCN(CC(c2ccc(-c3ccccc3Cl)cc2)C2(O)CCCCC2)CC1` (stereo not drawn) [Example 175, 1-[1-(2′-chloro-1,1′-biphenyl-4-yl)-2-(4-methylpiperazin-1-yl)ethyl]cyclohexanol dihydrochloride], 20%.
On the same count and under the same terms, with `COc1ccccc1COc1ccc(C(CN2CCNCC2)C2(O)CCCCC2)cc1Cl` (stereo not drawn) [Example 456, 1-(1-{3-chloro-4-[(2-methoxybenzyl)oxy]phenyl}-2-piperazin-1-ylethyl)cyclohexanol dihydrochloride] the figure was 90%; with `C#Cc1cccc(C(CN2CCNCC2)C2(O)CCCCC2)c1` (stereo not drawn) [Example 298, 1-[1-(3-ethynylphenyl)-2-piperazin-1-ylethyl]cyclohexanol dihydrochloride], 91%; with `COc1ccc(-c2cccc(C(CN3CCNCC3)C3(O)CCCCC3)c2)cc1OC` (stereo not drawn) [Example 250, 1-[1-(3′,4′-dimethoxy-1,1′-biphenyl-3-yl)-2-piperazin-1-ylethyl]cyclohexanol dihydrochloride], 15%.
On the same count and under the same terms, with `CC#Cc1cccc(C(CN2CCN(C)CC2)C2(O)CCCCC2)c1` (stereo not drawn) [Example 301, 1-[2-(4-methylpiperazin-1-yl)-1-(3-prop-1-ynylphenyl)ethyl]cyclohexanol dihydrochloride] the figure was 23%.
As to `C[C@H]1CN(C[C@H](c2cccc(OC(F)(F)F)c2)C2(O)CCCCC2)CCN1C` [Example 349, 1-{(1S)-2-[(3S)-3,4-dimethylpiperazin-1-yl]-1-[3-(trifluoromethoxy)phenyl]ethyl}cyclohexanol dihydrochloride], the inhibition at 1 µM turned out to be 82%.
In the case of `CN1CCN(CC(c2cccc(OCc3ccccc3)c2)C2(O)CCC2)CC1` (stereo not drawn) [Example 115, 1-[1-[3-(benzyloxy)phenyl]-2-(4-methylpiperazin-1-yl)ethyl]cyclobutanol dihydrochloride], the inhibition at 1 µM is -10%.
Same read-out and setting: with `OC1(C(CN2CCNCC2)c2ccc(OCCc3ccccc3)cc2)CCCCC1` (stereo not drawn) [Example 459, 1-{1-[4-(2-phenylethoxy)phenyl]-2-piperazin-1-ylethyl}cyclohexanol dihydrochloride] the figure was 58%.
Still for that read-out and setting: as for `C[C@@H](Oc1ccc(C(CN2CCN(C)CC2)C2(O)CCCCC2)cc1)c1ccccc1` (stereo partly drawn) [Example 469, 1-(2-(4-methylpiperazin-1-yl)-1-{4-[(1R)-1-phenylethoxy]phenyl}ethyl)cyclohexanol dihydrochloride], the figure is 12%.
The same measure, in the same setting: with `CN1CCN(CC(c2cccc(OC(F)(F)F)c2)C2(O)CCC2)CC1` (stereo not drawn) [Example 92, 1-{2-(4-methylpiperazin-1-yl)-1-[3-(trifluoromethoxy)phenyl]ethyl}cyclobutanol dihydrochloride] the figure was 13%.
`OC1(C(CN2CCNCC2)c2ccccc2-c2cccc(Cl)c2)CCCCC1` (stereo not drawn) [Example 150, 1-[1-(3′-chloro-1,1′-biphenyl-2-yl)-2-piperazin-1-ylethyl]cyclohexanol dihydrochloride]: the inhibition at 1 µM was determined as 18%.
In the case of `CN1CCN(CC(c2ccc(O)c(OC(F)(F)F)c2)C2(O)CCCCC2)CC1` (stereo not drawn) [Example 401, 4-[1-(1-hydroxycyclohexyl)-2-(4-methylpiperazin-1-yl)ethyl]-2-(trifluoromethoxy)phenol dihydrochloride], the inhibition at 1 µM worked out at 25%.
The same measure, in the same setting: as for `COc1cc(C(CN2CCNCC2)C2(O)CCCCC2)cc(Br)c1OCc1ccccc1` (stereo not drawn) [Example 390, 1-{1-[4-(benzyloxy)-3-bromo-5-methoxyphenyl]-2-piperazin-1-ylethyl}cyclohexanol dihydrochloride], the figure is 6%; as for `OC1(C(CN2CCNCC2)c2ccc(-c3cccc(OC(F)(F)F)c3)cc2)CCCCC1` (stereo not drawn) [Example 171, 1-{2-piperazin-1-yl-1-[3′-(trifluoromethoxy)-1,1′-biphenyl-4-yl]ethyl}cyclohexanol dihydrochloride], 32%; as for `COc1cc(C(CN2CCNCC2)C2(O)CCCCC2)ccc1OCc1ccccc1` (stereo not drawn) [Example 442, 1-{1-[4-(benzyloxy)-3-methoxyphenyl]-2-piperazin-1-ylethyl}cyclohexanol dihydrochloride], 57%.
On the same count and under the same terms, as for `OC1(C(CN2CCNCC2)c2cccc(-c3ccc(Cl)c(Cl)c3)c2)CCC1` (stereo not drawn) [Example 153, 1-[1-(3′,4′-dichloro-1,1′-biphenyl-3-yl)-2-piperazin-1-ylethyl]cyclobutanol dihydrochloride], the figure is 2%.

Still in this test, the particulars now being: 10 μM test compound (stated in the cell), [3H]NE uptake.
`OC1(C(CN2CCNCC2)c2ccc(Oc3ccccc3)cc2)CCCCC1` (stereo not drawn) [Example 307, 1-[1-(4-phenoxyphenyl)-2-piperazin-1-ylethyl]cyclohexanol dihydrochloride]: the inhibition at 10 µM was 44.5%.

Still in this test, the particulars now being: MDCK-Net6, read-out: % Inhibition @ 1 μM (hNET), 1 μM test compound, [3H]NE uptake.
Turning to `CN1CCN(C[C@H](c2cccc(OC(F)(F)F)c2)C2(O)CCCCC2)CC1` [Example 245, 1-{(1S)-2-(4-methylpiperazin-1-yl)-1-[3-(trifluoromethoxy)phenyl]ethyl}cyclohexanol dihydrochloride], the inhibition at 1 µM came to 88%.

Staying with this test, now noted: [3H]NE uptake, test range 1 to 10,000 nM.
The term pEC50 denotes the EC50 on a negative log10 scale, so that one unit is a factor of ten. The low end stands for a high EC50, the high end for a low EC50. `CN1CCN(C[C@H](c2ccc(OCc3ccccc3)cc2)C2(O)CCCCC2)CC1` [Example 411, 1-[(2S)-1-[4-(benzyloxy)phenyl]-2-(4-methylpiperazin-1-yl)ethyl]cyclohexanol dihydrochloride] gave a negative-log EC50 (pEC50) of 6.32.
Still for that read-out and setting: with `CN1CCN(CC(c2ccc(OCc3ccccc3)c(OC(F)(F)F)c2)C2(O)CCCCC2)CC1` (stereo not drawn) [Example 408, 1-[1-[4-(benzyloxy)-3-(trifluoromethoxy)phenyl]-2-(4-methylpiperazin-1-yl)ethyl]cyclohexanol dihydrochloride] the figure was 6.40.

Values taken from patent US7550456B2, “Substituted aryl cycloalkanoyl derivatives and methods of their use” (Wyeth, priority 2003, dated 2009).
